Results: patent US4082751A, “Therapeutic agents” (priority 1976, dated 1978)

Tested on: not given
Assay: not given
Conditions: bronchodilators, bronchial asthma; cited from earlier work

| SMILES | undesirable side effects |
| --- | --- |
| CNC[C@H](O)c1ccc(O)c(O)c1 [epinephrine] | cardiac stimulation and gastrointestinal distress |
| CC(C)NCC(O)c1ccc(O)c(O)c1 (stereo not drawn) [isoproterenol] | cardiac stimulation and gastrointestinal distress |
| CN1[C@@H]2CC[C@H]1C[C@@H](OC(=O)C(CO)c1ccccc1)C2 (stereo partly drawn) [atropine] | cardiac stimulation and gastrointestinal distress |

Same assay, conditions: in vivo; cited from earlier work

| SMILES | cardiovascular side effects | undesirable side effects |
| --- | --- | --- |
| O=C(O)c1cc(=O)c2c(OCC(O)COc3cccc4oc(C(=O)O)cc(=O)c34)cccc2o1 [DSCG, disodium cromoglycate] | without cardiovascular side effects |  |
| Cn1c(=O)c2[nH]cnc2n(C)c1=O [theophylline] |  | cardiac stimulation and gastrointestinal distress |

Tested on: not listed separately
Assay: water solubility of salts
Format: physicochemical
Conditions: salts of 2-(2-n-propoxyphenyl)-5-(5-1H-tetrazolyl)-pyrimidin-4(3H)-one

| SMILES | water solubility |
| --- | --- |
| CCCOc1ccccc1-c1ncc(-c2nnn[nH]2)c(=O)[nH]1 [diethanolamine, 2-(2-n-propoxyphenyl)-5-(5-1H-tetrazolyl)-pyrimidin-4(3H)-one] | water soluble |

Tested on: reagin-mediated Passive Cutaneous Anaphylaxis (PCA) response
Assay: Reagin-mediated rat Passive Cutaneous Anaphylaxis (PCA) screening test
Format: in vivo, rat (Sprague-Dawley)
Conditions: iv, test compounds 1-5 min before antigen challenge, DSCG at time of challenge, read-out: ID50, the dose of compound that inhibits 50% of the response, iv.
Method: The reagin-mediated rat Passive Cutaneous Anaphylaxis (PCA) screening test used to evaluate the present compounds is generally regarded as one of the best animal models for use in predicting the antiallergy activity of test compounds in man. Briefly, the method consists of passive sensitization of skin sites on the test animals with reaginic antibodies followed after 24 hours by administration of the test drug and antigen challenge. The allergic response is measured by use of Evans'blue dye and is evaluated by the spot diameter at the injection site. Details of the test are provided below.
Ovalbumin (5 times crystalline) Dinitrobenzene sulfonic acid, Na^+ salt Bordetella pertussis vaccine - phase I 10-20 × 10 ^9 killed organisms/ml. Aluminum hydroxide gel - 10 mg./ml. Potassium carbonate Male Sprague-Dawley (S/D) Rats - 200 gms. Female Sprague-Dawley Rats - 100 gms. Tris Buffered Saline (TBS) - 0.02 M 2-amino-2-hydroxymethyl-1,3-propanediol (Tris), 0.15 M NaCL, pH 8.2
A substituted ovalbumin antigen is used both as immunogen and challenging antigen. The antigen is prepared as follows: 500 mg. ovalbumin (EA) and 500 mg. K2 CO3 are dissolved in 25 ml. distilled H2 O and stirred at room temperature for 5 minutes. Five hundred (500)mg. dinitrobenzene sulfonic acid, Na^+ salt, (previously recrystallized from hot absolute ethanol) is then added slowly with continued stirring. The reaction mixture is then immediately placed in the dark and allowed to proceed for 2 hours with constant stirring. After 2 hours the mixture is placed in suitable dialysis tubing and dialyzed against 5 changes (4 liters each) of distilled H2 O at 5° C. After dialysis the product is lyophilized and stored at room temperature in a brown or amber container. The antigen obtained will appear as a light yellow, amorphous solid which is very soluble in water or saline. It is designated as DNP denatured ovalbumin (DNP-d EA).
Adult, male Sprague-Dawley rats are used as a source of reagin-rich antisera for the PCA model. Immunization is by a combinatin of DNP-d EA on Al(OH) 3 gel and B. pertussis vaccine. Preparation of the DNP-d EA - gel immunogen is as follows: Dissolve the DNP-d EA in TBS so as to give a concentration of 10 mg./ml. Slowly add 1 ml. of this solution to 10 ml. Al(OH) 3 gel (10 mg. solids/ml.) with constant stirring at room temperature. Stir the mixture an additional 30 minutes to insure a uniform adsorption of antigen on gel.
The resulting preparation is then used in combination with phase I B. pertussis vaccine to immunize male S/D rats as follows: For each rat administer 0.1 ml. DNP-d EA - gel suspension intramuscularly in each hind leg (200 μg DNP-d EA and 2 mg. gel total dose). Follow these injections by the intraperitoneal administration of 1.0 ml. B. pertussis vaccine (10-20 × 10 ^9 organisms). The use of light ether anesthesia during this procedure is recommended to insure proper intramuscular and intraperitoneal injections. 9 days following immunization (but no longer than 10) the animals are exsanguinated by cardiac puncture or abdominal aorta cannulation under ether or pentobarbital anesthesia. The collected whole blood is allowed to clot, the serum separated by centrifugation and the individual serum samples stored frozen until assayed for IgE content.
Individual serum samples should be screened for reaginic antibody concentration before being pooled with other sera, as not all rats respond to immunization procedures with reagin production. At 1:50 saline dilution of serum from each immunized rat is used for this purpose. Intradermal injections of 0.05 ml. of the diluted sera are made in the shaven backs of two small female recipient rats, 100-120 gms. Several serum samples can be tested simultaneously in recipient animals. After a 24 to 48 hour latent period antigen challenge is accomplished by intravenous administration to each rat of 1 mg. DNP-d EA in 0.5 ml. 0.5% Evans' blue dye in saline. […]

| SMILES | ED50 |
| --- | --- |
| O=C(O)c1cc(=O)c2c(OCC(O)COc3cccc4oc(C(=O)O)cc(=O)c34)cccc2o1 [DSCG, disodium cromoglycate] | 0.3 mg/kg |
| CCOc1ccccc1-c1ncc(-c2nnn[nH]2)c(=O)[nH]1 [Example 1, 2-(2-Ethoxyphenyl)-5-(5-1H-tetrazolyl)pyrimidin-4-(3H)-one] | 0.02 mg/kg |

Same assay, conditions: po, 10 min before antigen challenge, read-out: ID50, the dose of compound that inhibits 50% of the response, p.o.

| SMILES | ED50 |
| --- | --- |
| O=c1[nH]c(-c2ccccc2OCC2CC2)ncc1-c1nnn[nH]1 [Example 9, 2-(2-Cyclopropylmethoxyphenyl)-5-(5-1H-tetrazolyl)pyrimidin-4(3H)-one] | 0.07 mg/kg |
| CC(C)COc1ccccc1-c1ncc(-c2nnn[nH]2)c(=O)[nH]1 [Example 7, 2-(2-Isobutoxyphenyl)-5-(5-1H-tetrazolyl)pyrimidin-4(3H)-one] | ~0.1 mg/kg |
| CC(C)Oc1ccccc1-c1ncc(-c2nnn[nH]2)c(=O)[nH]1 [Example 3, 2-(2-Isopropoxyphenyl)-5-(5-1H-tetrazolyl)pyrimidin-4(3H)-one] | ~0.04 mg/kg |
| C=CCOc1ccccc1-c1ncc(-c2nnn[nH]2)c(=O)[nH]1 [Example 8, 2-(2-Allyloxyphenyl)-5-(5-1H-tetrazolyl)pyrimidin-4(3H)-one] | 0.24 mg/kg |
| CCCOc1ccccc1-c1ncc(-c2nnn[nH]2)c(=O)[nH]1 [Example 2, 2-(2-n-Propoxyphenyl)-5-(5-1H-tetrazolyl)pyrimidin-4(3H)-one] | 0.04 mg/kg |
| CCCCOc1ccccc1-c1ncc(-c2nnn[nH]2)c(=O)[nH]1 [Example 4, 2-(2-n-Butoxyphenyl)-5-(5-1H-tetrazolyl)pyrimidin-4(3H)-one] | ~0.07 mg/kg |
| CCCOc1ccc(N)cc1-c1ncc(-c2nnn[nH]2)c(=O)[nH]1 [Example 15, 2-(5-Amino-2-n-propoxyphenyl)-5-(5-1H-tetrazolyl)pyrimidin-4(3H)-one] | ~0.1 mg/kg |
| CCCOc1ccc([N+](=O)[O-])cc1-c1ncc(-c2nnn[nH]2)c(=O)[nH]1 [Example 14, 2-(5-Nitro-2-n-propoxyphenyl)-5-(5-1H tetrazolyl)pyrimidin-4(3H)-one] | 5 mg/kg |
| O=C(O)c1cc(=O)c2c(OCC(O)COc3cccc4oc(C(=O)O)cc(=O)c34)cccc2o1 [DSCG, disodium cromoglycate] | > 30 mg/kg |
| COc1ccccc1-c1ncc(-c2nnn[nH]2)c(=O)[nH]1 [Example 6, 2-(2-Methoxyphenyl)-5-(5-1H-tetrazolyl)pyrimidin-4(3H)-one] | ~0.1 mg/kg |
| CCOc1ccccc1-c1ncc(-c2nnn[nH]2)c(=O)[nH]1 [Example 1, 2-(2-Ethoxyphenyl)-5-(5-1H-tetrazolyl)pyrimidin-4-(3H)-one] | 0.09 mg/kg |
| CCCOc1ccc(N(C)C)cc1-c1ncc(-c2nnn[nH]2)c(=O)[nH]1 [Example 16, 2-(5-Dimethylamino-2-n-propoxyphenyl)-5-(5-1H-tetrazolyl)pyrimidin-4(3H)-on] | ~0.4 mg/kg |
| CCC(C)Oc1ccccc1-c1ncc(-c2nnn[nH]2)c(=O)[nH]1 (racemic) [Example 5, (±)-2-(2-sec-Butoxyphenyl)-5-(5-1H-tetrazolyl)pyrimidin-4(3H)-one] | 0.05 mg/kg |
| CCCOc1ccc(OC)cc1-c1ncc(-c2nnn[nH]2)c(=O)[nH]1 [Example 10, 2-(5-Methoxy-2-n-propoxyphenyl)-5-(5-1H-tetrazolyl)pyrimidin-4(3H)-one] | 0.03 mg/kg |

Tested on: release of mediators, e.g. histamine and SRS-A
Assay: not given
Conditions: administered to asthmatic patients prior to inhalation of specific antigens; cited from earlier work

| SMILES | inhibition of release of mediators |
| --- | --- |
| O=C(O)c1cc(=O)c2c(OCC(O)COc3cccc4oc(C(=O)O)cc(=O)c34)cccc2o1 [DSCG, disodium cromoglycate] | inhibits the release of mediators |

Tested on: not given
Assay: not given
Conditions: must be administered by inhalation; cited from earlier work

| SMILES | oral absorption |
| --- | --- |
| O=C(O)c1cc(=O)c2c(OCC(O)COc3cccc4oc(C(=O)O)cc(=O)c34)cccc2o1 [DSCG, disodium cromoglycate] | not orally absorbed |
